From patent US4933497A, “Preparation of hydroxybenzaldehydes by hydrocarbonylation of halophenols” (Rhone-Poulenc Chimie, priority 1988, dated 1990)

Assays:
[1] = water
[2] = in water (generally at 25° C.); cited from earlier work
[3] = in water; cited from earlier work

Row | Compound | pKa of the halophenol [1] | pKa of the phosphine [3] | also measured
1 | Oc1ccccc1Br [2-bromophenol] | 8.55 |  | 
2 | CCOc1cc(Br)ccc1O [4-bromo-2-ethoxyphenol] | ~9.5 |  | 
3 | COc1cc(Br)ccc1O [4-bromo-2-methoxyphenol] | 9.5 |  | 
4 | CN(C)c1ccncc1 [4-dimethylaminopyridine] |  |  | pKa of the conjugate acid of the amine [2]: 9.55
5 | c1ccc(CP(Cc2ccccc2)Cc2ccccc2)cc1 [tribenzylphosphine] |  | 6.0 | 
6 | C1CCC(P(C2CCCCC2)C2CCCCC2)CC1 [tricyclohexylphosphine] |  | 9.7 | 
7 | CCP(CC)CC [triethylphosphine] |  | 8.69 | 
8 | c1ccc(P(c2ccccc2)c2ccccc2)cc1 [triphenylphosphine, reference compound] |  | 2.74 | 
